Measured values: PubChem BioAssay AID1919000 (Molecular Pharmacology Branch, DTP, NCI, 2023)
Values joined by “and” are separate entries in the source; they are usually repeats but may differ in a detail not shown here. Identical values can stand only once. Each block holds one molecule with its values, some of them ahead of it.

Test system: 653999-131-R-J2-PDC complex spheroids, growth % test/control
Assay: Anticancer human tumor 653999-131-R-J2-PDC patient-derived lung adenocarcinoma cell line growth inhibition [AhR]
Conditions: for viability, T/C: stronger effect = lower value
Procedure, shortened: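 Spheroids combined tumor cells with HUVEC endothelial cells and human MSCs as stroma. AhR antagonists were paired with standard or investigational drugs, each dosed in half-log steps down from near clinical Cmax, or from 10 microM where Cmax was unknown.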

[1] = curve of first compound, second compound 0.1 µM
[2] = curve of first compound, second compound 0.316 µM
[3] = curve of first compound, second compound 1 µM
[4] = curve of first compound, second compound 3.16 µM
[5] = curve of first compound, second compound 10 µM
[6] = second compound 0.1 µM, first compound 0.0316 µM
[7] = second compound 0.1 µM, first compound 0.1 µM
[8] = second compound 0.1 µM, first compound 0.316 µM
[9] = second compound 0.1 µM, first compound 1 µM
[10] = second compound 0.1 µM, first compound 3.16 µM
[11] = second compound 0.1 µM, first compound 10 µM
[12] = second compound 0.316 µM, first compound 0.0316 µM
[13] = second compound 0.316 µM, first compound 0.1 µM
[14] = second compound 0.316 µM, first compound 0.316 µM
[15] = second compound 0.316 µM, first compound 1 µM
[16] = second compound 0.316 µM, first compound 3.16 µM
[17] = second compound 0.316 µM, first compound 10 µM
[18] = second compound 1 µM, first compound 0.0316 µM
[19] = second compound 1 µM, first compound 0.1 µM
[20] = second compound 1 µM, first compound 0.316 µM
[21] = second compound 1 µM, first compound 1 µM
[22] = second compound 1 µM, first compound 3.16 µM
[23] = second compound 1 µM, first compound 10 µM
[24] = second compound 3.16 µM, first compound 0.0316 µM
[25] = second compound 3.16 µM, first compound 0.1 µM
[26] = second compound 3.16 µM, first compound 0.316 µM
[27] = second compound 3.16 µM, first compound 1 µM
[28] = second compound 3.16 µM, first compound 3.16 µM
[29] = second compound 3.16 µM, first compound 10 µM
[30] = second compound 10 µM, first compound 0.0316 µM
[31] = second compound 10 µM, first compound 0.1 µM
[32] = second compound 10 µM, first compound 0.316 µM
[33] = second compound 10 µM, first compound 1 µM
[34] = second compound 10 µM, first compound 3.16 µM
[35] = second compound 10 µM, first compound 10 µM
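Also: spheroids exposed to agents for seven days.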
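For viability, T/C in this document: 100% = DMSO vehicle control viability.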

SMILES: O=C(c1cc(Cc2n[nH]c(=O)c3ccccc23)ccc1F)N1CCN(C(=O)C2CC2)CC1
viability, T/C (compound 0.0316 µM): 107% and 92.7% and 109%
viability, T/C (compound 0.1 µM): 102% and 99.8% and 95.5%
viability, T/C (compound 0.316 µM): 96.7% and 98.2% and 106%
viability, T/C (compound 1 µM): 98.8% and 93.7% and 86.1%
viability, T/C (compound 3.16 µM): 97.4% and 95.6% and 95.2%
viability, T/C (compound 10 µM): 86% and 84.6% and 77.5%
IC50 (curve of compound): > 10000 nM

SMILES: Cc1cncc(-c2nc(NCCc3c[nH]c4ccccc34)c3ncn(C(C)C)c3n2)c1
viability, T/C (compound 0.1 µM): 92.6% [middle of 20 runs]
viability, T/C (compound 0.316 µM): 97% [middle of 20 runs]
viability, T/C (compound 1 µM): 101% [middle of 20 runs]
viability, T/C (compound 10 µM): 52% [middle of 20 runs]

SMILES: CC(CO)NC(=O)c1cc(-c2ccc(Cl)cc2)nn(-c2cnn(C)c2)c1=O (stereo not given)
viability, T/C (compound 0.1 µM): 93.8% [middle of 20 runs]
IC50 (compound alone, run of 05/31/2022): > 10000 nM

SMILES: O=C(C=Cn1cnc(-c2cc(C(F)(F)F)cc(C(F)(F)F)c2)n1)NNc1cnccn1 + CC(CO)NC(=O)c1cc(-c2ccc(Cl)cc2)nn(-c2cnn(C)c2)c1=O
IC50 [1]: 766 nM
IC50 [2]: 771 nM
IC50 [3]: 814 nM
IC50 [4]: 1230 nM
IC50 [5]: > 3000 nM
viability, T/C (second compound 0.1 µM, first compound 0.00949 µM): 103%
viability, T/C (second compound 0.1 µM, first compound 0.03 µM): 110%
viability, T/C (second compound 0.1 µM, first compound 0.0949 µM): 76.1%
viability, T/C (second compound 0.1 µM, first compound 0.3 µM): 59.7%
viability, T/C (second compound 0.1 µM, first compound 0.949 µM): 48.9%
viability, T/C (second compound 0.1 µM, first compound 3 µM): 45.1%
viability, T/C (second compound 0.316 µM, first compound 0.00949 µM): 109%
viability, T/C (second compound 0.316 µM, first compound 0.03 µM): 98%
viability, T/C (second compound 0.316 µM, first compound 0.0949 µM): 71.3%
viability, T/C (second compound 0.316 µM, first compound 0.3 µM): 59.7%
viability, T/C (second compound 0.316 µM, first compound 0.949 µM): 51.1%
viability, T/C (second compound 0.316 µM, first compound 3 µM): 40%
viability, T/C (second compound 1 µM, first compound 0.00949 µM): 95.8%
viability, T/C (second compound 1 µM, first compound 0.03 µM): 103%
viability, T/C (second compound 1 µM, first compound 0.0949 µM): 86.1%
viability, T/C (second compound 1 µM, first compound 0.3 µM): 61.1%
viability, T/C (second compound 1 µM, first compound 0.949 µM): 51.7%
viability, T/C (second compound 1 µM, first compound 3 µM): 42.8%
viability, T/C (second compound 3.16 µM, first compound 0.00949 µM): 114%
viability, T/C (second compound 3.16 µM, first compound 0.03 µM): 105%
viability, T/C (second compound 3.16 µM, first compound 0.0949 µM): 96.1%
viability, T/C (second compound 3.16 µM, first compound 0.3 µM): 64.2%
viability, T/C (second compound 3.16 µM, first compound 0.949 µM): 55.5%
viability, T/C (second compound 3.16 µM, first compound 3 µM): 43.6%
viability, T/C (second compound 10 µM, first compound 0.00949 µM): 111%
viability, T/C (second compound 10 µM, first compound 0.03 µM): 101%
viability, T/C (second compound 10 µM, first compound 0.0949 µM): 86.5%
viability, T/C (second compound 10 µM, first compound 0.3 µM): 65.6%
viability, T/C (second compound 10 µM, first compound 0.949 µM): 54%
viability, T/C (second compound 10 µM, first compound 3 µM): 54.4%

Second part, led by results:

IC50 [1]: 8450 nM
IC50 [2]: 7790 nM
IC50 [3]: 8130 nM
IC50 [4]: 7000 nM
IC50 [5]: 6940 nM
SMILES: COc1ccc([C@@H](O)c2cc(-c3ncnc4cc(N5CCOCC5)ccc34)c(F)cc2Cl)nn1 + CC(CO)NC(=O)c1cc(-c2ccc(Cl)cc2)nn(-c2cnn(C)c2)c1=O
viability, T/C [6]: 91.5%
viability, T/C [7]: 86.9%
viability, T/C [8]: 85.4%
viability, T/C [9]: 73.6%
viability, T/C [10]: 63.9%
viability, T/C [11]: 47.6%
viability, T/C [12]: 89.9%
viability, T/C [13]: 90.2%
viability, T/C [14]: 87.8%
viability, T/C [15]: 80%
viability, T/C [16]: 66.8%
viability, T/C [17]: 45.2%
viability, T/C [18]: 90.4%
viability, T/C [19]: 95.4%
viability, T/C [20]: 95.2%
viability, T/C [21]: 84.5%
viability, T/C [22]: 65.4%
viability, T/C [23]: 46.6%
viability, T/C [24]: 96%
viability, T/C [25]: 96.8%
viability, T/C [26]: 100%
viability, T/C [27]: 77.4%
viability, T/C [28]: 60.3%
viability, T/C [29]: 45.4%
viability, T/C [30]: 90%
viability, T/C [31]: 95.3%
viability, T/C [32]: 90.8%
viability, T/C [33]: 75.3%
viability, T/C [34]: 59.5%
viability, T/C [35]: 45.6%

IC50 (curve of compound): > 10000 nM
SMILES: COc1cc(Nc2ncc3c(n2)-c2ccc(Cl)cc2C(c2c(F)cccc2OC)=NC3)ccc1C(=O)O
viability, T/C (compound 0.0316 µM): 93.1% and 93.5% and 98%
viability, T/C (compound 0.1 µM): 73% and 85% and 75.2%
viability, T/C (compound 0.316 µM): 75.1% and 70.2% and 68.6%
viability, T/C (compound 1 µM): 71.5% and 66.9% and 67.2%
viability, T/C (compound 3.16 µM): 66.2% and 68.2% and 70.6%
viability, T/C (compound 10 µM): 60.7% and 64.3% and 65.4%

IC50 [1]: 136 nM
IC50 [2]: 124 nM
IC50 [3]: 144 nM
IC50 [4]: 167 nM
IC50 [5]: 131 nM
SMILES: COc1cccc2c1C(=O)c1c(O)c3c(c(O)c1C2=O)CC(O)(C(=O)CO)CC3OC1CC(N)C(O)C(C)O1 (stereo not given) + CC(CO)NC(=O)c1cc(-c2ccc(Cl)cc2)nn(-c2cnn(C)c2)c1=O
viability, T/C [6]: 60.7%
viability, T/C [7]: 53%
viability, T/C [8]: 35%
viability, T/C [9]: 11.7%
viability, T/C [10]: 6.06%
viability, T/C [11]: 19.9%
viability, T/C [12]: 62.3%
viability, T/C [13]: 52.8%
viability, T/C [14]: 31.1%
viability, T/C [15]: 10.4%
viability, T/C [16]: 4.91%
viability, T/C [17]: 20.9%
viability, T/C [18]: 71%
viability, T/C [19]: 57%
viability, T/C [20]: 33%
viability, T/C [21]: 11.2%
viability, T/C [22]: 4.47%
viability, T/C [23]: 18.9%
viability, T/C [24]: 62.9%
viability, T/C [25]: 49.5%
viability, T/C [26]: 42.3%
viability, T/C [27]: 6.87%
viability, T/C [28]: 7.41%
viability, T/C [29]: 20.7%
viability, T/C [30]: 73.4%
viability, T/C [31]: 54.6%
viability, T/C [32]: 31.8%
viability, T/C [33]: 5.67%
viability, T/C [34]: 9.25%
viability, T/C [35]: 21.4%

IC50 [1]: 6200 nM
IC50 [2]: 1780 nM
IC50 [3]: > 10000 nM
IC50 [4]: 948 nM
IC50 [5]: < 31.6 nM
SMILES: NS(=O)(=O)OCC1CC(n2ccc3c(NC4CCc5ccccc54)ncnc32)CC1O (stereo not given) + Cc1cncc(-c2nc(NCCc3c[nH]c4ccccc34)c3ncn(C(C)C)c3n2)c1
viability, T/C [6]: 108%
viability, T/C [7]: 106%
viability, T/C [8]: 101%
viability, T/C [9]: 71.4%
viability, T/C [10]: 50.4%
viability, T/C [11]: 49.8%
viability, T/C [12]: 113%
viability, T/C [13]: 112%
viability, T/C [14]: 106%
viability, T/C [15]: 52.2%
viability, T/C [16]: 48.4%
viability, T/C [17]: 47.2%
viability, T/C [18]: 112%
viability, T/C [19]: 120%
viability, T/C [20]: 108%
viability, T/C [21]: 49.3%
viability, T/C [22]: 50.5%
viability, T/C [23]: 51.2%
viability, T/C [24]: 117%
viability, T/C [25]: 104%
viability, T/C [26]: 90.5%
viability, T/C [27]: 46.8%
viability, T/C [28]: 40.5%
viability, T/C [29]: 43.3%
viability, T/C [30]: 44.4%
viability, T/C [31]: 38%
viability, T/C [32]: 39.4%
viability, T/C [33]: 22.3%
viability, T/C [34]: 18.5%
viability, T/C [35]: 19.4%

IC50 [1]: 846 nM
IC50 [2]: 568 nM
IC50 [3]: 513 nM
IC50 [4]: 965 nM
IC50 [5]: 962 nM
SMILES: COc1cc(C2c3cc4c(cc3C(OC3OC5COC(C)OC5C(O)C3O)C3COC(=O)C23)OCO4)cc(OC)c1O (stereo not given) + Cc1ccccc1N=Nc1ccc(NC(=O)c2ccnn2C)c(C)c1
viability, T/C [6]: 86%
viability, T/C [7]: 76%
viability, T/C [8]: 58.6%
viability, T/C [9]: 48.8%
viability, T/C [10]: 38.1%
viability, T/C [11]: 28.3%
viability, T/C [12]: 86.2%
viability, T/C [13]: 68.6%
viability, T/C [14]: 54%
viability, T/C [15]: 47.3%
viability, T/C [16]: 34%
viability, T/C [17]: 29.1%
viability, T/C [18]: 90.2%
viability, T/C [19]: 72.6%
viability, T/C [20]: 53.7%
viability, T/C [21]: 42.8%
viability, T/C [22]: 37.7%
viability, T/C [23]: 30.2%
viability, T/C [24]: 80%
viability, T/C [25]: 77.4%
viability, T/C [26]: 62%
viability, T/C [27]: 46.1%
viability, T/C [28]: 42.5%
viability, T/C [29]: 27.7%
viability, T/C [30]: 72.6%
viability, T/C [31]: 68.7%
viability, T/C [32]: 58%
viability, T/C [33]: 49%
viability, T/C [34]: 41.4%
viability, T/C [35]: 31.8%
